Data taken from PubChem BioAssay AID1963861 (Molecular Pharmacology Branch, DTP, NCI, 2024).

Tested on: 885724-159-R-J1-PDC KRAS PDC multicell spheroid viability
Assay: Anticancer human tumor 885724-159-R-J1-PDC patient-derived pancreatic adenocarcinoma cell line growth inhibition [KRAS2]
Conditions: for IC50: curve of first compound; for viability, T/C: stronger effect = lower value
Procedure, shortened: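 Combination screen of spheroid viability in tumor-cell co-cultures with endothelial (HUVEC) and mesenchymal stem cell stroma. Each agent was tested in half-log dilutions, topping at clinical Cmax or at 10 microM without a known Cmax.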

[1] = second compound 0.1 µM, first compound 0.0316 µM
[2] = second compound 0.1 µM, first compound 0.1 µM
[3] = second compound 0.316 µM, first compound 0.0316 µM
[4] = second compound 0.316 µM, first compound 0.1 µM
[5] = second compound 1 µM, first compound 0.0316 µM
[6] = second compound 1 µM, first compound 0.1 µM
[7] = second compound 3.16 µM, first compound 0.0316 µM
[8] = second compound 3.16 µM, first compound 0.1 µM
[9] = second compound 10 µM, first compound 0.0316 µM
[10] = second compound 10 µM, first compound 0.1 µM
[11] = second compound 0.1 µM, first compound 0.316 µM
[12] = second compound 0.1 µM, first compound 1 µM
[13] = second compound 0.1 µM, first compound 3.16 µM
[14] = second compound 0.1 µM, first compound 10 µM
[15] = second compound 0.316 µM, first compound 0.316 µM
[16] = second compound 0.316 µM, first compound 1 µM
[17] = second compound 0.316 µM, first compound 3.16 µM
[18] = second compound 0.316 µM, first compound 10 µM
[19] = second compound 1 µM, first compound 0.316 µM
[20] = second compound 1 µM, first compound 1 µM
[21] = second compound 1 µM, first compound 3.16 µM
[22] = second compound 1 µM, first compound 10 µM
[23] = second compound 3.16 µM, first compound 0.316 µM
[24] = second compound 3.16 µM, first compound 1 µM
[25] = second compound 3.16 µM, first compound 3.16 µM
[26] = second compound 3.16 µM, first compound 10 µM
[27] = second compound 10 µM, first compound 0.316 µM
[28] = second compound 10 µM, first compound 1 µM
[29] = second compound 10 µM, first compound 3.16 µM
[30] = second compound 10 µM, first compound 10 µM
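Further: spheroids exposed to agents for 7 days before readout.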

## CC(C)n1nc(-c2ccc3oc(N)nc3c2)c2c(N)ncnc21 + CC1OCC2(CCN(c3cnc(Sc4ccnc(N)c4Cl)c(N)n3)CC2)C1N
Second compound 0.1 µM
  IC50: 0.0633 µM
Second compound 0.316 µM
  IC50: 0.0498 µM
Second compound 1 µM
  IC50: 0.033 µM
Second compound 3.16 µM
  IC50: 0.012 µM
Second compound 10 µM
  IC50: 0.0131 µM
Second compound 0.1 µM, first compound 0.000316 µM
  viability, T/C: 90.5%
Second compound 0.1 µM, first compound 0.001 µM
  viability, T/C: 79%
Second compound 0.1 µM, first compound 0.00316 µM
  viability, T/C: 69.8%
Second compound 0.1 µM, first compound 0.01 µM
  viability, T/C: 64.8%
[1]
  viability, T/C: 53.5%
[2]
  viability, T/C: 46.8%
Second compound 0.316 µM, first compound 0.000316 µM
  viability, T/C: 86.5%
Second compound 0.316 µM, first compound 0.001 µM
  viability, T/C: 75.7%
Second compound 0.316 µM, first compound 0.00316 µM
  viability, T/C: 65%
Second compound 0.316 µM, first compound 0.01 µM
  viability, T/C: 58.6%
[3]
  viability, T/C: 55.7%
[4]
  viability, T/C: 44.8%
Second compound 1 µM, first compound 0.000316 µM
  viability, T/C: 76.2%
Second compound 1 µM, first compound 0.001 µM
  viability, T/C: 69.1%
Second compound 1 µM, first compound 0.00316 µM
  viability, T/C: 63.2%
Second compound 1 µM, first compound 0.01 µM
  viability, T/C: 53.6%
[5]
  viability, T/C: 53.4%
[6]
  viability, T/C: 43.5%
Second compound 3.16 µM, first compound 0.000316 µM
  viability, T/C: 77.7%
Second compound 3.16 µM, first compound 0.001 µM
  viability, T/C: 79.3%
Second compound 3.16 µM, first compound 0.00316 µM
  viability, T/C: 61.5%
Second compound 3.16 µM, first compound 0.01 µM
  viability, T/C: 53.3%
[7]
  viability, T/C: 45.5%
[8]
  viability, T/C: 47.3%
Second compound 10 µM, first compound 0.000316 µM
  viability, T/C: 72.6%
Second compound 10 µM, first compound 0.001 µM
  viability, T/C: 70%
Second compound 10 µM, first compound 0.00316 µM
  viability, T/C: 63.2%
Second compound 10 µM, first compound 0.01 µM
  viability, T/C: 51.5%
[9]
  viability, T/C: 44.1%
[10]
  viability, T/C: 39.6%

## CC1(C)CCC(CN2CCN(c3ccc(C(=O)NS(=O)(=O)c4ccc(NCC5CCOCC5)c([N+](=O)[O-])c4)c(Oc4cnc5[nH]ccc5c4)c3)CC2)=C(c2ccc(Cl)cc2)C1 + CC1OCC2(CCN(c3cnc(Sc4ccnc(N)c4Cl)c(N)n3)CC2)C1N
Second compound 0.1 µM
  IC50: 4.31 µM
Second compound 0.316 µM
  IC50: 3.45 µM
Second compound 1 µM
  IC50: 2.85 µM
Second compound 3.16 µM
  IC50: 1.62 µM
Second compound 10 µM
  IC50: 1.21 µM
[1]
  viability, T/C: 88%
[2]
  viability, T/C: 88.3%
[11]
  viability, T/C: 89%
[12]
  viability, T/C: 74.8%
[13]
  viability, T/C: 58.2%
[14]
  viability, T/C: 29.7%
[3]
  viability, T/C: 82.3%
[4]
  viability, T/C: 83.8%
[15]
  viability, T/C: 75.4%
[16]
  viability, T/C: 74.2%
[17]
  viability, T/C: 51.7%
[18]
  viability, T/C: 22.1%
[5]
  viability, T/C: 77.8%
[6]
  viability, T/C: 75.2%
[19]
  viability, T/C: 68.5%
[20]
  viability, T/C: 62.2%
[21]
  viability, T/C: 51.1%
[22]
  viability, T/C: 17.6%
[7]
  viability, T/C: 64.1%
[8]
  viability, T/C: 63.7%
[23]
  viability, T/C: 63.2%
[24]
  viability, T/C: 57.4%
[25]
  viability, T/C: 39.7%
[26]
  viability, T/C: 12%
[9]
  viability, T/C: 58%
[10]
  viability, T/C: 58.3%
[27]
  viability, T/C: 60.5%
[28]
  viability, T/C: 53.5%
[29]
  viability, T/C: 30.4%
[30]
  viability, T/C: 3.18%

## COc1cc(Nc2ncc3c(n2)-c2ccc(Cl)cc2C(c2c(F)cccc2OC)=NC3)ccc1C(=O)O + CC1OCC2(CCN(c3cnc(Sc4ccnc(N)c4Cl)c(N)n3)CC2)C1N
Second compound 0.1 µM
  IC50: > 10 µM
Second compound 0.316 µM
  IC50: > 10 µM
Second compound 1 µM
  IC50: > 10 µM
Second compound 3.16 µM
  IC50: > 10 µM
Second compound 10 µM
  IC50: > 10 µM
[1]
  viability, T/C: 104%
[2]
  viability, T/C: 91.3%
[11]
  viability, T/C: 92.4%
[12]
  viability, T/C: 96.7%
[13]
  viability, T/C: 99%
[14]
  viability, T/C: 103%
[3]
  viability, T/C: 95.1%
[4]
  viability, T/C: 90.7%
[15]
  viability, T/C: 85.8%
[16]
  viability, T/C: 84.1%
[17]
  viability, T/C: 91.2%
[18]
  viability, T/C: 93.5%
[5]
  viability, T/C: 90%
[6]
  viability, T/C: 88.8%
[19]
  viability, T/C: 78%
[20]
  viability, T/C: 79.6%
[21]
  viability, T/C: 79.4%
[22]
  viability, T/C: 87.7%
[7]
  viability, T/C: 81.7%
[8]
  viability, T/C: 82.2%
[23]
  viability, T/C: 76.4%
[24]
  viability, T/C: 73.8%
[25]
  viability, T/C: 75.2%
[26]
  viability, T/C: 80.3%
[9]
  viability, T/C: 76.5%
[10]
  viability, T/C: 69.3%
[27]
  viability, T/C: 70.6%
[28]
  viability, T/C: 67.7%
[29]
  viability, T/C: 70.9%
[30]
  viability, T/C: 70.9%

## COc1cc2nccc(Oc3ccc(NC(=O)C4(C(=O)Nc5ccc(F)cc5)CC4)cc3)c2cc1OC + CC1OCC2(CCN(c3cnc(Sc4ccnc(N)c4Cl)c(N)n3)CC2)C1N
Second compound 0.1 µM
  IC50: > 10 µM
Second compound 0.316 µM
  IC50: > 10 µM
Second compound 1 µM
  IC50: 3.12 µM
Second compound 3.16 µM
  IC50: 2.98 µM
Second compound 10 µM
  IC50: 2.21 µM
[1]
  viability, T/C: 87.1%
[2]
  viability, T/C: 87.9%
[11]
  viability, T/C: 87.9%
[12]
  viability, T/C: 82.7%
[13]
  viability, T/C: 59.1%
[14]
  viability, T/C: 63%
[3]
  viability, T/C: 84.7%
[4]
  viability, T/C: 79.9%
[15]
  viability, T/C: 83.7%
[16]
  viability, T/C: 84.7%
[17]
  viability, T/C: 60.5%
[18]
  viability, T/C: 51.1%
[5]
  viability, T/C: 74.3%
[6]
  viability, T/C: 71.2%
[19]
  viability, T/C: 76.2%
[20]
  viability, T/C: 72.5%
[21]
  viability, T/C: 49.1%
[22]
  viability, T/C: 50.3%
[7]
  viability, T/C: 75.5%
[8]
  viability, T/C: 82.8%
[23]
  viability, T/C: 72.1%
[24]
  viability, T/C: 67.7%
[25]
  viability, T/C: 45.8%
[26]
  viability, T/C: 52.3%
[9]
  viability, T/C: 71.4%
[10]
  viability, T/C: 62.9%
[27]
  viability, T/C: 67.4%
[28]
  viability, T/C: 63.3%
[29]
  viability, T/C: 44%
[30]
  viability, T/C: 39.4%
